Laboratory results from ChEMBL document CHEMBL4145552, “Marine derived xyloketal derivatives exhibit anti-stress and anti-ageing effects through HSF pathway in Caenorhabditis elegans” (2018).
Activity calls are given as the source filed them. The rule behind the calls is not given here.

Tests used:
[1] = tested on: Caenorhabditis elegans; assay: Protection against thermal stress in Caenorhabditis elegans N2 assessed as increase in mean survival time at 100 uM at 37 degC measured every 1 hr post treatment relative to control; type: functional
[2] = tested on: Caenorhabditis elegans; assay: Protection against thermal stress in Caenorhabditis elegans N2 assessed as increase in mean survival time at 300 uM at 37 degC measured every 1 hr post treatment relative to control; type: functional
[3] = tested on: Caenorhabditis elegans; assay: Protection against thermal stress in Caenorhabditis elegans PS3551 harboring HSF-1 mutant assessed as mean survival time at 37 degC measured every 1 hr up to 8 hrs post treatment (reference value: 4.37 +/- 0.1 hrs); type: functional
[4] = tested on: Caenorhabditis elegans; assay: In vivo activation of HSF-1 pathway in Caenorhabditis elegans N2 assessed as increase in HSP70 protein expression by Western blot analysis relative to control; type: functional
[5] = tested on: Caenorhabditis elegans; assay: Anti-ageing activity in Caenorhabditis elegans N2 assessed as increase in life span at 300 uM relative to control; type: functional
[6] = tested on: Caenorhabditis elegans; assay: Anti-ageing activity in Caenorhabditis elegans N2 assessed as increase in rate of health span on bending in lifespan at 300 uM measured for 3 secs at 3 days time interval up to 16 days relative to control; type: functional
[7] = tested on: Caenorhabditis elegans; assay: Anti-ageing activity in Caenorhabditis elegans N2 assessed as increase in rate of health span on pumping in lifespan at 300 uM measured for 10 secs at 2 days time interval up to 21 days by dissecting microscopic method relative to control; type: functional
[8] = tested on: Caenorhabditis elegans; assay: Anti-ageing activity in Caenorhabditis elegans N2 assessed as increase in rate of health span in maximal lifespan at 300 uM; type: functional, organism-based
[9] = tested on: Caenorhabditis elegans; assay: Anti-ageing activity in Caenorhabditis elegans PS3551 harboring HSF-1 mutant assessed as increase in life span by measuring mean survival time measured up to 20 days post treatment (reference value: 10.89 +/- 0.17 day); type: functional
[10] = tested on: Caenorhabditis elegans; assay: Protection against amyloid beta aggregation-induced paralysis in Caenorhabditis elegans CL4176 harboring temperature-inducible human amyloid beta (3 to 42) transgene assessed as time delay in progression of paralysis at 26 degC after 36 hrs; type: functional

## COc1ccc(N2COc3c4c(c5c(c3C2)O[C@@]2(C)OC[C@H](C)[C@H]2C5)O[C@@]2(C)OC[C@H](C)[C@H]2C4)cc1
[1]
  Activity: Active

## COC(=O)c1c(O)c2c(c3c1O[C@@]1(C)OC[C@H](C)[C@H]1C3)O[C@@]1(C)OC[C@H](C)[C@H]1C2
[1]
  Activity: Active
[2]
  Activity: Active

## COC1(C)CCc2c(cc(O)c3c2OC(C)(OC)CC3)O1 (stereo not given)
[1]
  Activity: Active

## C[C@H]1CO[C@]2(C)Oc3c(c4c(c5c3C[C@@H]3[C@@H](C)CO[C@]3(C)O5)CN(c3ccc([N+](=O)[O-])cc3)CO4)C[C@H]12
[1]
  Activity: inactive

## Oc1cc2c(c3c1CC1CCCOC1O3)CC1CCCOC1O2 (stereo not given)
[1]
  Activity: Active

## COC(=O)C(Cc1ccc(O)cc1)NC(=O)c1c(O)c2c(c3c1O[C@@]1(C)OC[C@H](C)[C@H]1C3)O[C@@]1(C)OC[C@H](C)[C@H]1C2 (stereo not given in full)
[1]
  Activity: Active
[2]
  Activity: Active

## C[C@H]1CO[C@]2(C)Oc3c(c(O)c(C(=O)O)c4c3C[C@@H]3[C@@H](C)CO[C@]3(C)O4)C[C@H]12
[1]
  Activity: Active

## CCCCSC(=O)c1c(O)c2c(c3c1OC1OCCCC1C3)OC1OCCCC1C2 (stereo not given)
[1]
  Activity: Active

## COC(=O)c1c(O)c2c(c3c1OC1OCCCC1C3)OC1OCCCC1C2 (stereo not given)
[1]
  Activity: Active

## C[C@H]1CO[C@]2(C)Oc3c(c4c(c5c3C[C@@H]3[C@@H](C)CO[C@]3(C)O5)CN(c3ccc(O)cc3)CO4)C[C@H]12
[3]
  MST: 4.32 h
[1]
  Activity: 15.38%
[2]
  Activity: <=23.96%
[4]
  Activity: 28%
[5]
  Activity: 11%
[6]
  Activity: <=22%
[7]
  Activity: 16%
[8]
  Activity: Active
[9]
  MST: 10.99 days
[10]
  Time: 2.8 h

## COC(=O)C(Cc1cc2ccccc2[nH]1)NC(=O)c1c(O)c2c(c3c1O[C@@]1(C)OC[C@H](C)[C@H]1C3)O[C@@]1(C)OC[C@H](C)[C@H]1C2 (stereo not given in full)
[1]
  Activity: Active

## C[C@H]1CO[C@]2(C)Oc3c(c(O)c(C(=O)NCCc4ccc(O)cc4)c4c3C[C@@H]3[C@@H](C)CO[C@]3(C)O4)C[C@H]12
[1]
  Activity: Active

## COc1ccc(NC(=O)c2c(O)c3c(c4c2O[C@@]2(C)OC[C@H](C)[C@H]2C4)O[C@@]2(C)OC[C@H](C)[C@H]2C3)cc1
[1]
  Activity: Active

## CNC(=O)c1c(O)c2c(c3c1OC1OCCCC1C3)OC1OCCCC1C2 (stereo not given)
[1]
  Activity: Active

## C[C@H]1CO[C@]2(C)Oc3c(c4c(c5c3C[C@@H]3[C@@H](C)CO[C@]3(C)O5)CN(c3ccc(Cl)cc3)CO4)C[C@H]12
[1]
  Activity: Active

## CCCCOc1cc2c(c3c1C[C@@H]1[C@@H](C)CO[C@]1(C)O3)C[C@@H]1[C@@H](C)CO[C@]1(C)O2
[1]
  Activity: Active
[2]
  Activity: Active

## C[C@H]1CO[C@]2(C)Oc3c(c4c(c5c3C[C@@H]3[C@@H](C)CO[C@]3(C)O5)CN(c3ccc(Br)cc3)CO4)C[C@H]12
[1]
  Activity: Active
[2]
  Activity: Active

## C[C@H]1CO[C@]2(C)Oc3c(c4c(c5c3C[C@@H]3[C@@H](C)CO[C@]3(C)O5)CN(c3ccc(I)cc3)CO4)C[C@H]12
[1]
  Activity: Active

## C[C@H]1CO[C@]2(C)Oc3cc(OC/C=C/c4ccccc4)c4c(c3C[C@H]12)O[C@@]1(C)OC[C@H](C)[C@H]1C4
[1]
  Activity: inactive

## O=c1c(O)c(-c2ccc(O)c(O)c2)oc2cc(O)cc(O)c12 [QUERCETIN]
[1]
  Activity: 8.81%

## C[C@H]1CO[C@]2(C)Oc3c(c4c(c5c3C[C@@H]3[C@@H](C)CO[C@]3(C)O5)CN(CCOCCO)CO4)C[C@H]12
[1]
  Activity: Active

## C[C@H]1CO[C@]2(C)Oc3c(c4c(c5c3C[C@@H]3[C@@H](C)CO[C@]3(C)O5)CN(C)CO4)C[C@H]12
[1]
  Activity: Active

## CC1CC2Cc3c(cc(O)c4c3OC3(C)OC(C)CC3C4)OC2(C)O1 (stereo not given)
[1]
  Activity: inactive

## C[C@H]1CO[C@]2(C)Oc3c(c4c(c5c3C[C@@H]3[C@@H](C)CO[C@]3(C)O5)CN(c3ccccc3)CO4)C[C@H]12
[1]
  Activity: inactive

## C[C@H]1CO[C@]2(C)Oc3cc(O)c4c(c3C[C@H]12)O[C@@]1(C)OC[C@H](C)[C@H]1C4
[1]
  Activity: Active
[2]
  Activity: Active

## CCCCN1COc2c3c(c4c(c2C1)O[C@@]1(C)OC[C@H](C)[C@H]1C4)O[C@@]1(C)OC[C@H](C)[C@H]1C3
[1]
  Activity: Active

## C[C@H]1CO[C@]2(C)Oc3c(c(O)c(C(=O)Nc4ccc(F)cc4)c4c3C[C@@H]3[C@@H](C)CO[C@]3(C)O4)C[C@H]12
[1]
  Activity: Active

## C[C@H]1CO[C@]2(C)Oc3c(c4c(c5c3C[C@@H]3[C@@H](C)CO[C@]3(C)O5)CN(c3ccc(F)cc3)CO4)C[C@H]12
[1]
  Activity: Active

## COC(=O)CNC(=O)c1c(O)c2c(c3c1O[C@@]1(C)OC[C@H](C)[C@H]1C3)O[C@@]1(C)OC[C@H](C)[C@H]1C2
[1]
  Activity: Active
[2]
  Activity: Active

## C[C@H]1CO[C@]2(C)Oc3c(c4c(c5c3C[C@@H]3[C@@H](C)CO[C@]3(C)O5)CN(c3ccc(C(=O)O)cc3)CO4)C[C@H]12
[1]
  Activity: Active
